Columns and labels:
5-HT M receptors = settings: cited from earlier work
ferrets [1] = settings: ferrets treated with cisplatin; cited from earlier work
cancer patients = settings: cited from earlier work
non-NMDA receptors = assay: Chick retina assay: blocking non-NMDA receptors; assay type: cell-based; settings: chick retinas, relative to Kyn
NMDA receptors = assay: Chick retina assay: protection against excitotoxic action of NMDA; assay type: cell-based; settings: Table 1, normalized to kynurenic acid vs KA = 1
Description: (§1) Antagonist potencies were established in a chick retina assay which has
(§2) (NMDA, KA and Quis) for excitotoxic properties and EAA antagonists for
(§3) potency in protecting the retina against the excitotoxic action of such
(§4) agonists. The concentration of antagonist required to totally prevent the
(§5) toxic action of an agonist was used to compare antagonists for potency.
(§6) For purposes of illustration, the data were normalized by assigning a
(§7) EAA antagonist properties have been described in each category. Antagonis
(§8) potencies were established in a chick retina assay which has been used by
(§9) Quis) for excitotoxic properties and EAA antagonists for potency in
(§10) protecting the retina against the excitotoxic action of such agonists.
(§11) concentration of antagonist required to totally prevent the toxic action
(§12) of an agonist was used to compare antagonists for potency. For purposes o
(§13) to kynurenic acid vs KA (see table 1) and all other values were adjusted

Quis receptors = assay: Chick retina assay: protection against excitotoxic action of Quis; assay type: cell-based; settings: Table 1, normalized to kynurenic acid vs KA = 1
Description: as §1, §2, §3, §4, §5, §6, §7, §8, §9, §10, §11, §12, §13

KA receptors = assay: Chick retina assay: protection against excitotoxic action of KA; assay type: cell-based; settings: Table 1, normalized to kynurenic acid vs KA = 1
Description: as §1, §2, §3, §4, §5, §6, §7, §8, §9, §10, §11, §12, §13

[2] = tested on: EAA receptors (NMDA, KA, Quis); settings: cited from earlier work
[3] = statement in text; cited from earlier work
dogs = assay: Emesis induction by NMDA in dogs; blockage by D-AP5; assay type: in vivo, dog; settings: IV, in the vicinity of 5 mg/kg
Description: Therefore, each dog (all were young adults) was used for more than one experiment. Typically, one or more tests would be done using NMDA to determine an effective dosage for an individual dog. After the dose was established, an experiment was conducted on a subsequent day in which the dog also received 2 mg/kg D-AP5 subcutaneously (SC), along with the NMDA. On the day after that, NMDA was administered alone, to ensure that the emetic response was unchanged and the dog had not developed tolerance or sustained damage to the emesis-mediating reflexes.

ferrets [4] = assay: Emesis induction by cisplatin (8 mg/kg IV) in ferrets; blockage by Kyn; assay type: in vivo, ferret; settings: cisplatin 8 mg/kg IV alone, 4 ferrets, 5 h observation
Description: Four ferrets (a control group) received 8 mg/kg IV cisplatin, a chemotherapeutic drug which has a powerful emetic effect.
Nine ferrets were treated with cisplatin (8 mg/kg IV), and with Kyn, either by bolus (one-shot) injection using 150 mg/kg, or by continuous IV infusion using 50 mg/kg/hour.

ferrets [5] = assay: Emesis induction by cisplatin (10 mg/kg IV) in ferrets; blockage by D-AP5/CNQX; assay type: in vivo, ferret; settings: cisplatin 10 mg/kg IV alone, five ferrets, 5 h
Description: Since suitable agents such as D-AP5 are available that can block NMDA receptors without crossing the BBB, a mixture of CNQX and D-AP5 was tested to see whether a mixture of an NMDA antagonist and a non-NMDA antagonist would have anti-emetic properties. The dosage of cisplatin was increased to 10 mg/kg IV, since only 3 out of 4 of the control animals vomited when 8 mg/kg was used as described in Example 4. This increased the stringency of the test.
Five control animals (ferrets) were treated.
Five test animals were treated by cisplatin, 10 mg/kg IV, followed by intravenous infusion of a mixture of 15 mg/kg/hr CNQX and 5 mg/kg/hr D-AP5.

[6] = of 20 cancer patients, no control group

CN1C2CCCC1CC(NC(=O)c1nn(C)c3ccccc13)C2 (centres unmarked) [BRL 43694]
5-HT M receptor antagonism (5-HT M receptors): more powerful and selective 5-HT M receptor antagonist than metoclopramide
preventing or reducing the severity of emesis (ferrets [1]): effective in preventing or reducing the severity of emesis
patients with both nausea and vomiting (delayed in onset) (cancer patients; [6]): 9 patients
patients with mild nausea (cancer patients; [6]): 4 patients
patients with neither nausea nor vomiting (cancer patients; [6]): 7 patients
cisplatin patients with nausea and vomiting (cancer patients; of the 5 patients that received cisplatin): 4 patients

N#Cc1cc2[nH]c(=O)c(=O)[nH]c2cc1[N+](=O)[O-] [CNQX]
times more powerful than Kyn in blocking non-NMDA receptors (non-NMDA receptors): approximately 30 times
EAA antagonist potency vs NMDA (NMDA receptors): 5
EAA antagonist potency vs Quis (Quis receptors): 67
EAA antagonist potency vs KA (KA receptors): 30
block of non-NMDA vs NMDA receptors [2]: block non-NMDA receptors substantially more powerfully than NMDA receptors
potency compared with kynurenic or 7-chloro-kynurenic acid [2]: significantly more powerful

CN[C@H](CC(=O)O)C(=O)O [NMDA, N-methyl-D-aspartate]
penetration of blood brain barriers [3]: does not penetrate the BBB
emetic response to NMDA (dogs): vomiting can be induced

N.N.[Cl][Pt][Cl] [cisplatin]
malaise after cisplatin (ferrets [4]): All four control animals displayed persistent malaise
vomiting after cisplatin (ferrets [4]): One control animal did not vomit, but the other three vomited repeatedly
appearance of illness (ferrets [5]): all appeared ill throughout the observation period
